This is an account of results in patent publication US20260191817A1, “FIBROBLAST MODULATORS IN STROMA-RICH TUMORS” (UNIVERSITEIT GENT, priority 2022, published 2026).

SMILES strings stand for the structures. Entries after “also recorded” stand apart in the source; their conditions may differ.

In one data set the test system is 4T1-Luc aggregates. Put plainly: Chick heart invasion (CHI) assay with 4T1-Luc aggregates. The format is cell-based, mouse. To be noted: 1 μM, in duplo. Here is the method: Chick heart invasion assays were performed as described earlier (Bracke et al. 2014). Precultured heart fragments of 9-day-old chicken embryos were confronted with MCF-7/6 aggregates on top of a semi-solid agar at 37° C. overnight, after which the confronting pairs were cultured in suspension for 8 days at 37° C., 10% CO2 in presence or absence of a test compound (in duplo). This procedure can also be performed with aggregates of 4T1-Luc cells, for which the suspension culture of the confronting pairs is performed for 3.5 days. All compounds were evaluated at 1 μM and 100 nM; depending on the outcome higher or lower concentrations were subsequently evaluated. […] Sections of the confrontation cultures were stained with hematoxylin-eosin are blinded and scored by a trained person (Bracke et al., 2014).
In the chick heart invasion assay cancer cells are confronted with a fragment of normal tissue, so as not to neglect the contribution of the host tissue in the micro-ecosystem that governs tumor behavior. […] After eight days for MCF-7/6, or another period depending on the cell type, the interaction between the cancer cells and the PHF is evaluated histologically and classified along a 5-grades subjective scale (Bracke et al. 2014). […] Compounds that inhibit invasion of confronting cancer cells i.e. from III/IV to 0/I/II, are determined as anti-invasive. […]

Data set [1] deals with HCA2 hTERT dermal fibroblasts. Put plainly: AFM spheroid stiffness, HCA2 hTERT dermal fibroblasts. The format is cell-based. The conditions noted are these: HCA2 hTERT normal dermal fibroblasts; 1 μM, 48 h. Here is the method: (§1) Selectivity for CAFs with respect to normal fibroblasts and other cell types was assessed by performing an identical experiment with normal fibroblasts and other cell types, where compounds were considered selective for CAFs if they only modulate CAF stiffness.
(§2) U-shaped, 384-well ULA plates (cat. no. MS-9384UZ, S-bio) were seeded with a suspension of cell-specific culture media with cells. Cells were allowed to form spheroids for an appropriate time under treatment conditions before use in experiments. Cell culture dishes (cat. no. 734-2814, VWR) were filled with collagen gel and placed at 37° C. for an appropriate time to allow solidification. For each condition, spheroids were pooled in one cell culture dish. The medium was removed (stored at 37° C.) to promote attachment of the bottom of each spheroid to the collagen gel. The cell culture dishes were incubated at 37° C. After the incubation period, the stored medium was carefully (prevent detachment of spheroids) added to the dishes.
(§3) Mechanical measurements were performed using an atomic force microscope. To indent the spheroids an in-house made colloidal probe was used. Force curves were collected using an appropriate setpoint and probe speed (depending on the stiffness of the spheroids). On each spheroid multiple force curves were collected. Collected curves were then processed using the JPK DP software. Young's modulus was extracted from the force curves. All experiments were performed in biological triplicate.
(§4) To generate 3D cultures mimicking the complexity and pathophysiology of in vivo tumors, spheroids were used (cfr. point 4). Spheroids are considered to better simulate cellular heterogeneity, nutrient and oxygen gradients, cell-cell interactions, cell-matrix interactions, gene expression profiles, stromal interactions, therapeutic responses, multicellular resistance, drug penetration and anti-apoptotic signaling.

The subject of data set [2] is MCF-7/6 breast cancer cells. Put plainly: AFM spheroid stiffness, MCF-7/6 breast cancer cells. The data set is classed as cell-based, human. To be noted: 48 h. Here is the method: as §1, §2, §3, §4
Data set [3] concerns primary glioblastoma (GBM) cells. Briefly: AFM spheroid stiffness, primary glioblastoma cells. The data set is classed as cell-based, human. The conditions noted are these: 48 h. Here is the method:
as §1, §2, §3, §4

Data set [4] concerns primary human atrial fibroblasts. Briefly: AFM spheroid stiffness, primary human atrial fibroblasts. The conditions noted are these: 1 μM, 48 h. The format is cell-based. Here is the method:
as §1, §2, §3, §4

Data set [5] in a line: 4T1-based intraductal model: tolerability. The format is in vivo. To be noted: oral in Medigel, 100 mg/kg three times per day; weekly evaluation across 6 w study period. As for the experimental part:
Compounds were dissolved in DMSO. The compound solution was subsequently aspired using a 1 mL syringe and an 18 G (pink) needle, including additional air to help eject all the solution and avoid retention of compound in the dead volume. The solution was injected into a Medigel in five parts at five different sites and a volume of gel was aspired and reinjected into the cup at the last site to rinse the dead volume of the syringe. The medication was shaken vigorously afterwards and visually examined for even dispersion of compound. Mice received freshly prepared cups with medication every 48 h and gels were placed in gel cup holders to avoid contact with bedding material and absorbent shavings in the mouse cage. The amount of Medigel given to the mice was weekly determined and depended on the mean mouse body weight and consumption. The dosing level was kept constant at 100 mg/kg three times per day.
Body weight and body temperature were measured every day during the first week p.i., and once a week during the following 5 weeks (i.e. up to 6 w p.i.) using a digital weighing scale and a rectal temperature probe, respectively. As a measurement of primary tumor growth, primary tumor volumes were weekly monitored using a digital caliper and 4T1-luc-derived bioluminescence in primary tumors was monitored at 1, 3 and 6 w p.i. using the IVIS lumina III system (PerkinElmer, Zaventem, Belgium). To perform in vivo imaging, mice were injected with 200 μl D-luciferin suspended in PBS (2 mg/100 μl; Gold Biotechnology, St. Louis, MO) and images were acquired 10 min later under inhalation anesthesia. To perform ex vivo imaging, mice were sedated with a mixture of 100 mg/kg ketamine (Ketamidor, Ecuphar nv/sa, Oostkamp, Belgium) and 10 mg/kg xylazine (Xylazini Hydrochloridum, Val d'HonyVerdifarm, Beringen, Belgium) and subsequently sacrificed through cervical dislocation. Images of bioluminescent signals in isolated primary tumors, spleens and metastases-bearing organs (including axillary lymph nodes, lungs and liver) were quickly acquired using the IVIS system. Primary tumors and spleens were also weighed using a digital weighing scale. Analysis of the in vivo and ex vivo bioluminescent signals was performed using the living image software 4.7.2.

On to `COc1cc(C(=O)/C=C/c2ccc(F)cc2)cc(OC)c1OC` [Compound A1, 3-(4-Fluorophenyl)-1-(3,4,5-trimethoxyphenyl)prop2-en-1-one], for which the Histological invasion grade entry with 4T1-Luc aggregates is “I/II-III”. Also, the spheroid stiffness result is “no effect” in data set [1]; “no effect” in data set [2] (1 μM); “not result in a change” in data set [2] (0.03-3 μM); “no effect” in data set [3] (1 μM); “nor did it change” in data set [3] (0.03-3 μM); “did not alter; also recorded: no effect” in data set [4]. Further, the Body temperature entry in data set [5] is given as “no significant variation”. Further, the Body weight result in data set [5] is recorded as “no significant variation”.
Turning to `COc1cc2oc(-c3ccc(F)cc3)cc(=O)c2c(OC)c1OC` [Compound B1, 2-(4-Fluorophenyl)-5,6,7-trimethoxy-4H-chromen-4-one], the Histological invasion grade entry with 4T1-Luc aggregates is “II/II”. Also, the spheroid stiffness result was “no effect” in data set [1], “no effect” in data set [2] (1 μM), “no effect” in data set [3] (1 μM) and “did not alter; also recorded: no effect” in data set [4]. Moreover, the Body temperature entry in data set [5] is given as “no significant variation”. Besides, the Body weight entry in data set [5] is listed as “no significant variation”.
